# Results published in US6362369B1, “Phthalic acid diamide derivatives fluorine-containing aniline compounds as starting material, agricultural and horticultural insecticides, and a method for application of the insecticides” (Nihon Nohyaku Co., Ltd., priority 1997, dated 2002).
# What was measured:
# Format in all cases: in vivo
# [1] = system: common cutworm (Spodoptera Litura); assay: Insecticidal effect on common cutworm (Test Example 2); conditions: 500 ppm, cabbage leaf dip, second-instar larvae, eight days after inoculation, 25° C.
# In short: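 Air-dried treated material was placed in a closed dish with second-instar larvae and held at 25° C. Dead and live insects were counted eight days after inoculation, and mortality was calculated and scored against a fixed insecticidal-effect criterion. Three replicate groups of 10 insects were used.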
# [2] = system: diamondback moth (Plutella xylostella); assay: Insecticidal effect on diamondback moth (Test Example 1); conditions: mortality judged according to the criterion shown in Test Example 1
# In short: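 Eggs laid by adult moths on Chinese cabbage seedlings, which were immersed in test solution, air-dried and kept at 25 °C. Hatched insects counted 6 days after immersion and mortality calculated, with effect graded by criterion; triplicate groups of 10 insects.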
# [3] = system: rice leafroller (Cnaphalocrocis medinalis); assay: Insecticidal effect on rice leafroller (Test Example 3); conditions: 500 ppm, rice lamina dip, third-instar larvae, four days after inoculation, 25° C., humidity 70%
# In short: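 Groups of 10 third-instar larvae, in triplicate, are placed on air-dried lamina resting on wet filter paper. Incubation runs four days at 25° C with 70% humidity before survivors and dead are tallied.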
Compound,"Insecticidal effect on common cutworm (Test Example 2), judged grade [1]","Insecticidal effect on diamondback moth (Test Example 1), judged grade [2]","Insecticidal effect on rice leafroller (Test Example 3), judged grade [3]"
Cc1c(NC(=O)c2cccc([N+](=O)[O-])c2C(=O)NC(C)C)cccc1OC(F)F [compound 695],A (100),A (100),A (100)
"Cc1cc(OC(F)F)ccc1NC(=O)c1cccc([N+](=O)[O-])c1C(=O)NC(C)C [compound 696, N^1-(4-difluoromethoxy-2-methylphenyl)-N^2-isopropyl-3-nitrophthalic acid diamide]",A (100),A (100),A (100)
Cc1cc(OC(F)(F)C(F)(F)Br)ccc1NC(=O)c1cccc([N+](=O)[O-])c1C(=O)NC(C)C [compound 698],B (99-90),A (100),A (100)
Cc1cc(OCC(F)(F)C(F)F)ccc1NC(=O)c1cccc([N+](=O)[O-])c1C(=O)NC(C)C [compound 699],A (100),A (100),D (79-50)
Cc1cc(OC(F)(F)C(F)(Br)C(F)(F)F)ccc1NC(=O)c1cccc([N+](=O)[O-])c1C(=O)NC(C)C (stereo not drawn) [compound 700],A (100),A (100),A (100)
Cc1cc(OCC(F)OC(F)(F)F)ccc1NC(=O)c1cccc([N+](=O)[O-])c1C(=O)NC(C)C (stereo not drawn) [compound 701],A (100),A (100),A (100)
CC(C)NC(=O)c1c(C(=O)Nc2ccc(C(F)(C(F)(F)F)C(F)(F)F)cc2Cl)cccc1[N+](=O)[O-] [compound 703],A (100),A (100),A (100)
CC(C)NC(=O)c1c(C(=O)Nc2ccc(OC(F)(F)F)cc2Br)cccc1[N+](=O)[O-] [compound 705],D (79-50),A (100),A (100)
Cc1cc(OC(F)(F)F)ccc1NC(=O)c1cccc([N+](=O)[O-])c1C(=O)NC(C)C [compound 710],C (89-80),A (100),A (100)
Cc1cc(OC(F)(F)Br)ccc1NC(=O)c1cccc([N+](=O)[O-])c1C(=O)NC(C)C [compound 711],C (89-80),A (100),A (100)
Cc1cc(OC(F)(F)C(F)F)ccc1NC(=O)c1cccc([N+](=O)[O-])c1C(=O)NC(C)C [compound 712],A (100),A (100),A (100)
Cc1c(NC(=O)c2cccc([N+](=O)[O-])c2C(=O)NC(C)C)cccc1OC(F)(F)C(F)Cl (stereo not drawn) [compound 713],B (99-90),A (100),D (79-50)
Cc1cc(OC(F)(F)C(F)Cl)ccc1NC(=O)c1cccc([N+](=O)[O-])c1C(=O)NC(C)C (stereo not drawn) [compound 714],A (100),A (100),A (100)
Cc1cc(OC(F)(F)C(F)(Cl)Cl)ccc1NC(=O)c1cccc([N+](=O)[O-])c1C(=O)NC(C)C [compound 715],A (100),A (100),A (100)
Cc1cc(OC(F)(F)C(F)C(F)(F)F)ccc1NC(=O)c1cccc([N+](=O)[O-])c1C(=O)NC(C)C (stereo not drawn) [compound 716],A (100),A (100),A (100)
Cc1cc(Sc2ccc(Cl)cc2)ccc1NC(=O)c1cccc([N+](=O)[O-])c1C(=O)NC(C)C [compound 727],B (99-90),A (100),A (100)
CC(C)NC(=O)c1cccc([N+](=O)[O-])c1C(=O)Nc1ccc(C(F)(F)C(F)(F)C(F)(F)F)cc1Cl [compound 741],A (100),A (100),A (100)
